# From US7615551B2, “Salicylate and gentisate salts of a piperazine compound” (Solvay Pharmaceuticals, B.V., priority 2005, dated 2009)
# Experiments:
# D2 receptors = D2 receptors (Homo sapiens, UniProt P14416); conditions: cited from earlier work
# [1] = in vivo; cited from earlier work
# 5HT reuptake = 5HT reuptake (Homo sapiens, UniProt P31645); conditions: in therapeutic models; cited from earlier work
# catalepsy = conditions: rodents; cited from earlier work
# Water solubility = type: physicochemical; conditions: excess solid salt in water, equilibrated at least 24 hours, filtered, HPLC-UV; resulting pH 5.8
# Procedure: Water solubility was determined by combining an excess amount of solid salt with ˜2 mL D1 water in a 4 mL glass screw-cap vial and equilibrating for at least 24 hours on an end-over-end rotator. The resulting suspensions were filtered through a 0.22 μm PVDF filter and assayed by high pressure liquid chromatography with quantitation by UV against standards of compound 1.
# Sequence of 5HT reuptake (P31645 whole entry): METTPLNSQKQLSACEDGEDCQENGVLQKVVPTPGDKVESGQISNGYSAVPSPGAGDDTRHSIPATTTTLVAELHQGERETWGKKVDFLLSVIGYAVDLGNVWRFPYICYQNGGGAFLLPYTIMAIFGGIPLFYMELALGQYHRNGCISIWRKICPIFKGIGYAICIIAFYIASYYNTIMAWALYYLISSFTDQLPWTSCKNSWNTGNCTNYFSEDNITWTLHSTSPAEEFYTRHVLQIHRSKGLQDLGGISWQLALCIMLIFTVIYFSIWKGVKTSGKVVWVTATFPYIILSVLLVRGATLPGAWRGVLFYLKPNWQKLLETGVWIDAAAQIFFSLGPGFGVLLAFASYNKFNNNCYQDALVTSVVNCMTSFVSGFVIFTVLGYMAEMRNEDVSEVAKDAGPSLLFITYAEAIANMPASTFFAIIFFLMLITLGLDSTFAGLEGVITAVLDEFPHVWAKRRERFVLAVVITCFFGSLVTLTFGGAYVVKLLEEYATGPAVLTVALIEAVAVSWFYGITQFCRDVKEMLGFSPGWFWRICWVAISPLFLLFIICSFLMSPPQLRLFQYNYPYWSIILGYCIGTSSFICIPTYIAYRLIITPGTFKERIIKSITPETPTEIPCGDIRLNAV
# Sequence of D2 receptors (P14416 whole entry): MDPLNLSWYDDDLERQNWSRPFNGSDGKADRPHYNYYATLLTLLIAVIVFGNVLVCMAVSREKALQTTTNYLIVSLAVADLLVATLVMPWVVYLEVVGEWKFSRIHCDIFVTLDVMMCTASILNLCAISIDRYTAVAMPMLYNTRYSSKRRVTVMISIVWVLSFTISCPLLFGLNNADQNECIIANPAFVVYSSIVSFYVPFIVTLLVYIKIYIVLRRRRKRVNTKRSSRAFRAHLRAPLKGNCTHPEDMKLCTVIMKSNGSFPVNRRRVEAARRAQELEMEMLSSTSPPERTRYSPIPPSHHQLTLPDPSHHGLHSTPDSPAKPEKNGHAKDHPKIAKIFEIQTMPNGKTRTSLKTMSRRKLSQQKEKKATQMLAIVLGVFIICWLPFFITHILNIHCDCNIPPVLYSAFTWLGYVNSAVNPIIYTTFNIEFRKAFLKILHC
SMILES,activity at D2 receptors (D2 receptors),"activity in therapeutic models sensitive to antipsychotics, antidepressants, anxiolytics, Parkinson's disease [1]",activity against 5HT reuptake (5HT reuptake),propensity to induce catalepsy (catalepsy),water solubility (Water solubility)
"CC1Oc2c(cccc2N2CCN(CCCc3c[nH]c4ccc(F)cc34)CC2)NC1=O (stereo not drawn) [compound 1, 8-{4-[3-(5-fluoro-1H-indol-3-yl)-propyl]-piperazin-1-yl}-2-methyl-4H-benzo[1,4]oxazin-3-one]",antagonistic activity,active,inhibitory activity,low propensity to induce catalepsy,
CC1Oc2c(cccc2N2CCN(CCCc3c[nH]c4ccc(F)cc34)CC2)NC1=O (stereo not drawn) [compound 2],,,,,1600 µg/mL (freebase equivalent)
CC1Oc2c(cccc2N2CCN(CCCc3c[nH]c4ccc(F)cc34)CC2)NC1=O (stereo not drawn) [compound 3],,,,,500 µg/mL (freebase equivalent)
